Data set [1] relates to prostate specific membrane antigen (PSMA). The following applies: cited from earlier work.
The subject of data set [2] is BxPC-3 xenograft tumors. Put plainly: Biodistribution in mice bearing BxPC-3 xenograft tumors. The following applies: 4 h p.i.; for Blood uptake / Bone uptake / Brain uptake / BxPC-3 Tumor uptake / Fecal Matter radioactivity / Gall Bladder uptake / Heart uptake / Kidneys uptake / Lg. Intestines uptake / Liver uptake / Lung uptake / Muscle uptake / Pancreas uptake / Skin uptake / Sm. Intestines uptake / Spleen uptake / Stomach uptake / Urine radioactivity: i.v. In kind it is in vivo. As for the experimental part: All animal procedures conformed to the Animal Welfare Act and were approved by the University of California, Davis Institutional Animal Care and Use Committee. Female athymic nu/nu-nude mice (6–8 weeks old) were purchased from Charles River Laboratories (Wilmington, MA, USA) and provided food and water on an ad libitum basis. BxPC-3 xenografts were implanted according to previous methods. Briefly, BxPC-3 cells were evaluated by flow cytometry to confirm integrin αvβ6 expression levels, injected subcutaneously into the left flank [5 million in 100 μL of a 1:1 mixture of serum-free RPMI and GFR Matrigel (Corning, New York, NY, USA)], and allowed to grow for approximately 3 weeks until tumors reached a diameter of 0.5–1 cm.
For biodistribution studies the [^64Cu]1–4 (3.7–5.55 MBq) in PBS (100 μL, pH 7.2) was injected intravenously (i.v.) via catheter into the tail vein. Following a conscious uptake period, the mice were anesthetized (5% isoflurane), euthanized, and dissected ([^64Cu]1 and [^64Cu]2, n = 3/radiolabeled peptide/time point; 4, 24, and 48 h p.i.; the 72 h time point was obtained from the imaging animals after the 72 h PET/CT scans; compounds [^64Cu]3 and [^64Cu]4, n = 2/radiolabeled compound at 4 h p.i.). Tissues were rapidly collected, weighed, and radioactivity measured with a γ-counter. Decay-corrected radioactivity concentrations are expressed as the percentage of injected dose per gram of tissue (% ID/g). Data are reported as mean ± standard deviation (SD) (Figure S20, S21 and S25).

Details of data set [3]: method as in PMID 23236020, PMID 28094532. The conditions noted are these: cited from earlier work.
Data set [4] concerns the target T1, integrin αvβ6 (Homo sapiens, UniProt P06756+P18564).
T1 construct: purchased R&D Systems
Also on record: method as in PMID 34783573. The conditions noted are these: competitive ELISA against biotinylated LAP; read-out: IC50, integrin αvβ6 affinity; cited from earlier work.

For data set [5], the target named is T1, integrin αvβ6. In words: Integrin αvβ6 affinity competitive binding ELISA against biotinylated LAP. As to the method:
Affinity for the integrin αvβ6 was determined by competitive binding ELISA of [^NatCu]1 and [^NatCu]2 against biotinylated-LAP (G&P Biosciences, Santa Clara, CA, USA) as previously described to determine the half-maximum inhibitory concentration (IC50). Briefly, in a 96 well Nunc Immuno maxisorp plate, capturing anti-αv antibody (P2W7, 5 μg/mL, Abcam, MA, USA) was plated (50 μL/well) at 37 °C for 1 h, washed with PBS (3×), and blocked overnight with blocking buffer (300 μL/well, 0.5% non-fat dry milk powder (w/v), 1% Tween 20, in PBS). It was then washed with wash buffer that consisted of 2 mmol/L of Tris buffer (pH = 7.6), 150 mmol/L sodium chloride, 1 mmol/L manganese chloride, and 0.1% Tween 20 (v/v) in deionized water (3×). […] The ExtrAvidin HRP was detected with TMB One solution (50 μL/well; Promega Corp., Madison, WI, USA) for 10–15 min at room temperature. The reaction was stopped by adding 1N sulfuric acid (H2SO4, 50 μL/well; EMD, MA, USA) and the absorbance was measured in a Multiscan Ascent plate reader (Thermo Fisher, Waltham, MA, USA) at 450 nm. Half-maximal inhibitory concentration (IC50) of peptides was determined by fitting to sigmoidal dose-response model in GraphPad Prism 8.0 (GraphPad, CA, USA). […]
(In an ELISA, binding on a coated surface is turned into a signal by an enzyme label.)

Details of data set [6]: method as in PMID 32383076, PMID 24267053. The following applies: cited from earlier work.
A further data set concerns mouse serum protein. Also on record: method as in PMID 34783573. The following applies: either serum albumin (mouse); cited from earlier work.
The test system of the next data set is human serum protein. Also on record: method as in PMID 34783573. The following applies: either serum albumin (human); cited from earlier work.
Data set [7] concerns BxPC-3 xenograft tumors. Also on record: method as in PMID 34783573. The conditions noted are these: cited from earlier work.
Details of data set [8]: method as in PMID 26771036, PMID 26251416. The conditions noted are these: cited from earlier work.
Data set [9] concerns U87MG glioblastoma tumor model. The conditions noted are these: cited from earlier work.
On the set-up of data set [10]: method as in PMID 29653971. The conditions noted are these: clinical trials; cited from earlier work.
For the next data set, the system named is somatostatin receptor. The conditions noted are these: cited from earlier work; for Tumor accumulation: 24 h.

Several values for one entry are separate records, joined by “and”; a condition that tells them apart may be missing. Equal entries are not always repeated. Where two headings read alike, the source gives them in different places. A value given as a limit tells only on which side of the number the result lay.

T1 sequence (P06756 31-992 limits assumed): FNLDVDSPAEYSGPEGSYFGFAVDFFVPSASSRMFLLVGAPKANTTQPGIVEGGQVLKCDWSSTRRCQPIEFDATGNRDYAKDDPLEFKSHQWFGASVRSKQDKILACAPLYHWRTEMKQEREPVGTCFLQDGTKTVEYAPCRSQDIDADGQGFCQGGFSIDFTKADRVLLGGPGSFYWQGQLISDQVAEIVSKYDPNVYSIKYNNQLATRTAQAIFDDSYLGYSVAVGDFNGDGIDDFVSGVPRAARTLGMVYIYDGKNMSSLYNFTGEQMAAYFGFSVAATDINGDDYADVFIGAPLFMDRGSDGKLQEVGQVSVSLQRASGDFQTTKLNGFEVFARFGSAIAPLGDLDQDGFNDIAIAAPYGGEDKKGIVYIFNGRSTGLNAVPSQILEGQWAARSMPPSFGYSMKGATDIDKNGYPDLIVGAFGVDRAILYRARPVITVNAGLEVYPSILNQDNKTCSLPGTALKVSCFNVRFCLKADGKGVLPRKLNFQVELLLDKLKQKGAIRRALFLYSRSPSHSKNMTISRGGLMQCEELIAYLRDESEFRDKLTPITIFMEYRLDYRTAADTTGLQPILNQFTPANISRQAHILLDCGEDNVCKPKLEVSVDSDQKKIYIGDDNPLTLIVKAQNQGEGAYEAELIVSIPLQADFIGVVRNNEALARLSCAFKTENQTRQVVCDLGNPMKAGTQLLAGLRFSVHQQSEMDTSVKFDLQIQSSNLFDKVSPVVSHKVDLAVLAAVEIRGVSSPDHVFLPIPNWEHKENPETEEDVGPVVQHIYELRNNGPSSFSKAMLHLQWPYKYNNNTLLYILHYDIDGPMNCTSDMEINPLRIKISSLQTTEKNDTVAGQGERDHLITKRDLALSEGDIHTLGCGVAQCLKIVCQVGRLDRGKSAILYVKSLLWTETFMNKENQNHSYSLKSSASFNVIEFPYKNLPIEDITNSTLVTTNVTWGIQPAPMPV
T1 sequence (P18564 22-707 limits assumed): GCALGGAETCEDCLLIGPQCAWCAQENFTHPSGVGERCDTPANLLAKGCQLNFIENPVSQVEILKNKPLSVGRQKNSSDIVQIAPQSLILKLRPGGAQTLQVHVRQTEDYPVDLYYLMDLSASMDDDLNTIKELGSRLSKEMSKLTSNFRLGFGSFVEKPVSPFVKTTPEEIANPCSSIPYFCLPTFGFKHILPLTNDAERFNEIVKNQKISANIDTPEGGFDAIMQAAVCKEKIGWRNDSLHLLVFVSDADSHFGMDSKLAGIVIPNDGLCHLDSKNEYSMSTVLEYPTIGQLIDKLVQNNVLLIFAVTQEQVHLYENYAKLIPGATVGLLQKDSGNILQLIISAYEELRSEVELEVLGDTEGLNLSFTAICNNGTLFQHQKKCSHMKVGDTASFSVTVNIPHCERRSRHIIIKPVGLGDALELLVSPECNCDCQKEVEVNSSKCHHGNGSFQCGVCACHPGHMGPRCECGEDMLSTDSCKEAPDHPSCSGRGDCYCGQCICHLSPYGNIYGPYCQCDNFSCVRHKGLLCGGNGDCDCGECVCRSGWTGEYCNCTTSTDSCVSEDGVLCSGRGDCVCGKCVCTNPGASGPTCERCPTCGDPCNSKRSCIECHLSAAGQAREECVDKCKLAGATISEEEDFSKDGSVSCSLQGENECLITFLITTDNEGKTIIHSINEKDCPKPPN

Take `Cc1cc(-c2ccc(NC(=O)[C@H](CCCCNC(=O)CCN3C(=O)CC(SCC(=O)NCC4CCC(C(=O)N[C@H](Cc5ccc6ccccc6c5)C(=O)NCCCC[C@H](NC(=O)N[C@@H](CCC(=O)O)C(=O)O)C(=O)O)CC4)C3=O)NC(=O)CN3CCN(CC(=O)O)CCN(CC(=O)O)CCN(CC(=O)O)CC3)c(C)c2)ccc1N=Nc1ccc2c(S(=O)(=O)O)cc(S(=O)(=O)O)c(N)c2c1O` (stereo partly shown) [EB-ABM PSMA-617]: the Kidney accumulation in [1] (4 h) is recorded as more than 20 % ID/g. The Tumor accumulation in data set [1] (from 4 h to 48 h) is listed as 65.6–77.3 % ID/g.

With `Cc1cc(-c2ccc(NC(=O)CCC(=O)NCCCC[C@H](NC(=O)CN3CCN(CC(=O)O)CCN(CC(=O)O)CCN(CC(=O)O)CC3)C(N)=O)c(C)c2)ccc1N=Nc1ccc2c(S(=O)(=O)O)cc(S(=O)(=O)O)c(N)c2c1O` [[^64Cu]3, [^64Cu]Cu DOTA-EB, metal not drawn], in the data set with BxPC-3 xenograft tumors [2], the Tumor-Kidney ratio is recorded as 1.34 ±0.15, the “Tumor-Lg Intestines ratio” value turned out to be 1.49 ±0.68, the Tumor-Liver ratio is 1.2–1.3 and the “Tumor-Sm Intestines ratio” value is listed as 2.05 ±0.43. Also, in the data set with BxPC-3 xenograft tumors [2], the Tumor-Stomach ratio was found to be 2.52 ±0.58, the Blood uptake was 38.9 ± 10.4 % ID/g, the Bone uptake turned out to be 4.81 ± 0.79 % ID/g and the Brain uptake was 0.97 ± 0.19 % ID/g. Also, in the data set on BxPC-3 xenograft tumors [2], the “BxPC-3 Tumor uptake” value came out at 24.82 ± 0.90 % ID/g, the “Fecal Matter radioactivity” value is 33.79 ± 0.90 % ID/g, the “Gall Bladder uptake” value amounted to 28.57 ± 10.67 % ID/g and the Heart uptake came out at 12.05 ± 2.69 % ID/g. Further, in the data set on BxPC-3 xenograft tumors [2], the Kidneys uptake is recorded as 18.6 ± 1.4 % ID/g, the “Lg. Intestines uptake” value is given as 12.75 ± 0.65 % ID/g, the Liver uptake was 22.01 ± 4.74 % ID/g and the Lung uptake turned out to be 19.40 ± 1.33 % ID/g. Further, in the data set on BxPC-3 xenograft tumors [2], the Muscle uptake came out at 4.64 ± 1.40 % ID/g, the Pancreas uptake is 6.40 ± 1.03 % ID/g, the Skin uptake was 14.77 ± 1.82 % ID/g and the “Sm. Intestines uptake” value is listed as 12.45 ± 3.06 % ID/g. In the data set with BxPC-3 xenograft tumors [2], the Spleen uptake is recorded as 8.10 ± 1.19 % ID/g, the Stomach uptake stood at 10.16 ± 2.71 % ID/g and the Urine radioactivity worked out at 63.25 ± 27.58 % ID/g. Besides, in the data set with BxPC-3 xenograft tumors [2] (listed as [64Cu]3), the Blood uptake amounted to 38.88 ± 10.37 % ID/g, the Kidneys uptake was 18.59 ± 1.41 % ID/g, the Tumor-Blood ratio came to 0.66 ±0.15 and the Tumor-Liver ratio was 1.15 ±0.21. Moreover, in the data set on BxPC-3 xenograft tumors [2] (listed as [64Cu]3), the Tumor-Muscle ratio is 5.58 ±1.49.

Turning to `NC(=O)[C@H](CCCCNC(=O)[C@H](CC(=O)O)NC(=O)CCCNC(=O)CCCc1ccc(I)cc1)NC(=O)CN1CCN(CC(=O)O)CCN(CC(=O)O)CCN(CC(=O)O)CC1` [[^64Cu]4, [^64Cu]Cu DOTA-IP, metal not drawn], in the data set on BxPC-3 xenograft tumors [2], the Tumor-Kidney ratio was 1.83 ±0.19, the “Tumor-Lg Intestines ratio” value was determined as 2.83 ±0.36, the Tumor-Liver ratio is 1.2–1.3 and the “Tumor-Sm Intestines ratio” value was 2.31 ±0.27. In the data set on BxPC-3 xenograft tumors [2], the Tumor-Stomach ratio is 3.31 ±0.37, the Blood uptake was found to be 9.5 ± 1.3 % ID/g, the Bone uptake is 1.19 ± 0.06 % ID/g and the Brain uptake was determined as 0.36 ± 0.05 % ID/g. Further, in the data set with BxPC-3 xenograft tumors [2], the “BxPC-3 Tumor uptake” value was determined as 7.99 ± 1.93 % ID/g, the “Fecal Matter radioactivity” value came to 2.54 ± 1.41 % ID/g, the “Gall Bladder uptake” value was determined as 10.23 ± 3.01 % ID/g and the Heart uptake is recorded as 3.07 ± 0.01 % ID/g. Also, in the data set on BxPC-3 xenograft tumors [2], the Kidneys uptake was 4.34 ± 0.61 % ID/g and 4.3 % ID/g; the “Lg. Intestines uptake” value came to 2.90 ± 1.05 % ID/g; the Liver uptake is listed as 6.21 ± 1.51 % ID/g; the Lung uptake is 5.01 ± 0.69 % ID/g. In the data set on BxPC-3 xenograft tumors [2], the Muscle uptake amounted to 1.28 ± 0.03 % ID/g, the Pancreas uptake stood at 1.50 ± 0.09 % ID/g, the Skin uptake came to 4.38 ± 0.77 % ID/g and the “Sm. Intestines uptake” value turned out to be 3.53 ± 1.24 % ID/g. Further, in the data set with BxPC-3 xenograft tumors [2], the Spleen uptake is recorded as 2.10 ±0.24 % ID/g, the Stomach uptake is 2.39 ± 0.31 % ID/g and the Urine radioactivity amounted to 72.25 ± 35.13 % ID/g. Also, in the data set on BxPC-3 xenograft tumors [2] (listed as [64Cu]4), the Blood uptake came out at 9.51 ± 1.32 % ID/g, the Tumor-Blood ratio is 0.83 ±0.09, the Tumor-Liver ratio amounted to 1.29 ± 0.001 and the Tumor-Muscle ratio worked out at 6.25 ±1.37.

As to `Nc1nc2ncc(CNc3ccc(C(=O)N[C@@H](CCC(=O)O)C(=O)O)cc3)nc2c(=O)[nH]1` [folic acid], the Kidney accumulation in data set [3] (4 h) is on record as 70 % ID/g. The Tumor accumulation in data set [3] (24 h p.i.) is given as 7 % ID/g.

Turning to `O=C(O)CC[C@H](NC(=O)N[C@@H](CCCCNC(=O)[C@H](Cc1ccc2ccccc2c1)NC(=O)[C@H]1CC[C@H](CNC(=O)CN2CCN(CC(=O)O)CCN(CC(=O)O)CCN(CC(=O)O)CC2)CC1)C(=O)O)C(=O)O` [non-ABM PSMA-617], in data set [1] (24 h), the Tumor accumulation is 38 % ID/g.

What is called IC50 is the concentration that inhibits the measured activity by half. Take DOTA-αvβ6-BP: the half-maximal inhibitory concentration (IC50) at integrin αvβ6 [4] is 28 ± 3 nM.

As to [NatCu]Cu DOTA-EB-αvβ6-BP [[^NatCu]1], the IC50 at integrin αvβ6 [5] came to 14 ± 2 nM.

In the case of [NatCu]Cu DOTA-IP-αvβ6-BP [[^NatCu]2], the IC50 on integrin αvβ6 [5] was found to be 19 ± 5 nM.

Take [^18F]AlF NOTA-IP-ABM-αvβ6-BP: the “Fold lower kidney retention than [18F]AlF NOTA-A20FMDV2-peptide” value in data set [6] is recorded as more than 3.5 fold.

[^64Cu]Cu DOTA-αvβ6-BP: the “Binding to serum albumin” value in the data set with mouse serum protein and in the data set with human serum protein was less than 29% each time. For the same molecule, in the data set on BxPC-3 xenograft tumors [7] (4 h, same BxPC-3 tumor model), the BxPC-3 Tumor uptake is 1.61 ± 0.70 % ID/g. Besides, the Kidney accumulation with BxPC-3 xenograft tumors [7] (4 h) is listed as 20.37 ± 1.67 % ID/g; with BxPC-3 xenograft tumors [7] (48 h), 6.81 ± 1.36 % ID/g.

As for [^64Cu]Cu NOTA-EB, the Blood accumulation in [8] (4 h) is ~ 15 % ID/g; in [8] (1 d), ~ 10 % ID/g.

As to [^64Cu]Cu NOTA-EB-cRGDfK, in data set [9], the “Fold improvement in tumor accumulation vs. [64Cu]Cu NOTA-cRGDfK” value is reported as more than 16 fold and the Tumor accumulation was 16.6 % ID/g.

Turning to [^64Cu]Cu NOTA-cRGDfK, in [9], the Tumor accumulation is reported as less than 1.1 % ID/g.

For [^177Lu]Lu DOTA-EB-TATE, the “Fold increase in tumor dose delivery” value in data set [10] is 7.9 fold. The Kidney accumulation in the data set on somatostatin receptor (4 h) is ~ 30 % ID/g; in the data set with somatostatin receptor (72 h), ~ 15 % ID/g. Moreover, in the data set on somatostatin receptor, the Tumor accumulation is 78.8 % ID/g.

Consider [^177Lu]Lu DOTA-TATE, for which the Tumor accumulation in the data set with somatostatin receptor is on record as 9.3 % ID/g.

The values above are taken from paper PMC9025560, “A Comparison of Evans Blue and 4-(p-Iodophenyl)butyryl Albumin Binding Moieties on an Integrin αvβ6 Binding Peptide” (Pharmaceutics, 2022).
